{
  "source": "paper PMC8844822",
  "about": "“SARM1 is a multi-functional NAD(P)ase with prominent base exchange activity, all regulated bymultiple physiologically relevant NAD metabolites” (iScience, 2022)",
  "key": {"hCD38 [1]": {"target": "T1, hCD38 (Homo sapiens, UniProt P28907)", "T1 construct": "a soluble fragment Val43-Ile300 with 6x-His tag at C terminus; 6xHis (C); purchased R&D Systems", "T1 sequence (P28907 43-300)": "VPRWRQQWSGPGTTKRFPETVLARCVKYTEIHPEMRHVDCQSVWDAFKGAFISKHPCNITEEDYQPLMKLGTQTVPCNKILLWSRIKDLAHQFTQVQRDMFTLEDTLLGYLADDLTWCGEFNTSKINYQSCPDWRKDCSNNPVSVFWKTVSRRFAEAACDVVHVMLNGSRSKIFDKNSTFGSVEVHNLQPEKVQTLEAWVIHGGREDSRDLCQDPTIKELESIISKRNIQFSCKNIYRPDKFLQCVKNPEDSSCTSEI", "experiment": "NAD(P)ase activity by HPLC (kinetics, substrates, metal ions)", "format": "biochemical", "method": "(§1) hSARM1 species were routinely assayed by the NAD/NADH-Glo^TM Assay (Promega) while both Aplysia cyclase and CD38 were assayed by fluorometry using ϵNAD ([Orsomando et al., 2000]). […] Other reagents used in addition to, or in place of those above are detailed in text or in figure legends, for example metal ions, free bases, dinucleotide analogues, mononucleotides, and ribosides. Assays were all carried out at 25°C except for temperature studies. Reactions were stopped by HClO4/K2CO3 and analysed by C18-HPLC as reported ([Mori et al., 2014]). Only the acid labile NADH and NADPH were treated with 1 N NaOH and neutralized using 1:1 vol of 1.73 M KH2CO3 while the highly hydrophobic metabolites vacor, VAD, VMN and VR, were analysed by a modified C18-HPLC method ([Buonvicino et al., 2018]). Reaction products were quantified from peak areas (see Figure 2A) based on coelution with standards (except for cyclic products from NAD analogues that were not available and were attributed based on UV-spectra and retention times as predicted). Rates were calculated as follows. Hydrolysis and cyclization were measured from product generation from the respective individual dinucleotide substrate used, e.g., free and cyclic ADP-ribosyl moieties from NAD (Figure 1B). A basal value for hydrolysis/cyclization was taken as sum of these latter two products. In addition to that value, base exchange or transglycosidation was calculated from the expected dinucleotide analog formed in the presence of the corresponding free base, e.g., AcPyrAD from AcPyr and NAD.\n(§2) The kinetic parameters were calculated from initial rates obtained from replicates via best-fitting analysis using the following Equation 1 for CD38 and Aplysia cyclase, or Equation 2 for hSARM1 SAM-TIR, or Equation 3 for hSARM1 full length(Equation 1) V =Vmax[S]/Km+[S] […] In that case, the resulting single curves were fit to Equation 3 as above to evaluate any competition between NMN and the substrate used (see Table 1)."}, "hSARM1 full length [2]": {"target": "T2, hSARM1 full length (Homo sapiens, UniProt Q6SZW1)", "T2 construct": "Human recombinant SARM1 full length proteins (wild-type and E642A mutant); made in house", "T2 sequence (Q6SZW1 28-724)": "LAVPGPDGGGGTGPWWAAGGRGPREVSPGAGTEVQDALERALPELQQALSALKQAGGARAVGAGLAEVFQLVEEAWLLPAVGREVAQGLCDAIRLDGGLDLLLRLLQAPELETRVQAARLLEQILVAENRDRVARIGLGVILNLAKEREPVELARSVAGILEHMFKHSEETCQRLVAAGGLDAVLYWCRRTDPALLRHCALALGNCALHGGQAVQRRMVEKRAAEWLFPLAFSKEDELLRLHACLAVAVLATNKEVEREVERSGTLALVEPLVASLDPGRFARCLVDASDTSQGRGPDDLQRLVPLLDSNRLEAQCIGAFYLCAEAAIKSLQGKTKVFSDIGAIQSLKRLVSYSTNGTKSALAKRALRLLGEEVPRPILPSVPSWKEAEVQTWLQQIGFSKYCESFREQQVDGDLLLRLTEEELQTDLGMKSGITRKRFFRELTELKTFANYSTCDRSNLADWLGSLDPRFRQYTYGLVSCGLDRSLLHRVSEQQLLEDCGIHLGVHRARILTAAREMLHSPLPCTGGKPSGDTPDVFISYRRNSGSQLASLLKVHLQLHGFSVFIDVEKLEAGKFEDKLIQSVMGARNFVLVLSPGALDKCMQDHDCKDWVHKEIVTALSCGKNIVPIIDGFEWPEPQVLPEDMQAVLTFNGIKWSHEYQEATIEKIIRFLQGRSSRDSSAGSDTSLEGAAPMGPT", "experiment": "NAD(P)ase activity by HPLC (kinetics, substrates, metal ions)", "format": "biochemical", "conditions": "for basal rate: substrate alone […]", "method": "as §1, §2"}, "hSARM1 SAM-TIR [3]": {"target": "T3, hSARM1 SAM-TIR (Homo sapiens, UniProt Q6SZW1)", "T3 construct": "made in house", "T3 sequence (Q6SZW1 409-724)": "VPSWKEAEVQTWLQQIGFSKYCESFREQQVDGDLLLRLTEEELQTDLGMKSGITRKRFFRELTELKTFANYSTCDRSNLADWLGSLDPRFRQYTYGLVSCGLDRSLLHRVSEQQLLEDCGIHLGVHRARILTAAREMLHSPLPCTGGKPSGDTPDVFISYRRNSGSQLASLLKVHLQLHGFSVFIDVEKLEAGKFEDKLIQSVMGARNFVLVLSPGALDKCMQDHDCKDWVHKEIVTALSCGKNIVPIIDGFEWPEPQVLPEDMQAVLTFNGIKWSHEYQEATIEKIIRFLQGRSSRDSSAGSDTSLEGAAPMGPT", "format": "biochemical", "method": "as §1, with “In addition to that value, base exchange or transglycosidation was calculated from the expected dinucleotide analog formed in the presence of the corresponding free base, e.g., AcPyrAD from AcPyr and NAD.” left out"}, "hSARM1 SAM-TIR [4]": {"target": "T3, hSARM1 SAM-TIR", "experiment": "Base exchange reactions at neutral pH (HPLC)", "format": "biochemical", "conditions": "NAD […] alone or + AcPyr 2 mM / Vacor 0.5 mM / Na 2 mM", "method": "(§3) Multiple time stops from individual assays as above were analyzed for linearity, then extents of hydrolysis (white bars), cyclization (red bars), or base exchange (black bars) were calculated from each corresponding product as shown in Figure 1B and STAR methods. […] See also Figures S3–S5, and Table S1\n(§4) Rates were calculated as follows."}, "[5]": {"target": "T4, Aplysia californica ADP ribosyl cyclase (Aplysia californica, UniProt P29241)", "T4 sequence (P29241 25-282)": "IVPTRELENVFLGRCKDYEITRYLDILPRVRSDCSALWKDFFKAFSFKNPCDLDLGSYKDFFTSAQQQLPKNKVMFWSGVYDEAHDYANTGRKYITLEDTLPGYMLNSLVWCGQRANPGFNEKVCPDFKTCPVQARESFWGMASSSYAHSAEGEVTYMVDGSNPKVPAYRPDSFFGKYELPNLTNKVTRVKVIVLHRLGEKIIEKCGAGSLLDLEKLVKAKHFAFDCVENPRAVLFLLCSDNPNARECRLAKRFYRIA", "method": "as §1, §2"}, "[6]": {"target": "T4, Aplysia californica ADP ribosyl cyclase", "experiment": "Base exchange reactions at neutral pH (HPLC)", "format": "biochemical", "set-up": "purchased Merck A8950", "conditions": "NAD […] alone or + AcPyr 2 mM / Vacor 0.5 mM / Na 2 mM", "method": "as §3, §4"}, "hCD38 [7]": {"target": "T1, hCD38", "experiment": "Base exchange reactions at neutral pH (HPLC)", "format": "biochemical", "conditions": "NAD […] alone or + AcPyr 2 mM / Vacor 0.5 mM / Na 2 mM", "method": "as §3, §1"}, "hSARM1 full length [8]": {"target": "T2, hSARM1 full length", "experiment": "Base exchange reactions at neutral pH (HPLC)", "format": "biochemical", "conditions": "hSARM1 full length, no trigger; NAD […] alone or + AcPyr 2 mM / Vacor 0.5 mM / Na 2 mM; pH 7.5", "method": "as §3, §1"}},
  "note": "Where two headings read alike, the source gives them in different places.",
  "data": [
    {"smiles": "NC(=O)c1ccc[n+]([C@@H]2O[C@H](COP(=O)([O-])OP(=O)(O)OC[C@H]3O[C@@H](n4cnc5c(N)ncnc54)[C@H](O)[C@@H]3O)[C@@H](O)[C@H]2O)c1", "note": "[NAD, nicotinamide adenine dinucleotide]", "values": [
      {"measurement": "hydrolysis, share of NAD consumption", "setting": "hCD38 [1]; hCD38", "result": "> 98", "unit": "%"},
      {"measurement": "specific activity, basal NADase (hydrolysis or cyclization combined)", "setting": "hCD38 [1]; hCD38, saturating NAD", "result": "~7", "unit": "U/mg"},
      {"measurement": "Ki", "setting": "hSARM1 full length [2]; SARM1, read-out: Kia", "result": "~300", "unit": "µM"},
      {"measurement": "cyclization, share of total substrate consumption", "setting": "hSARM1 full length [2]; hSARM1, no free pyridines", "result": "~10", "unit": "%"},
      {"measurement": "hydrolysis, share of substrate consumption", "setting": "hSARM1 full length [2]; hSARM1, no free pyridines", "result": "~90", "unit": "%"},
      {"measurement": "specific activity, basal NADase (hydrolysis or cyclization combined)", "setting": "hSARM1 full length [2]; hSARM1, saturating NAD", "result": "~0.02", "unit": "U/mg"},
      {"measurement": "basal rate", "setting": "hSARM1 full length [2]; hSARM1 full length 14.6 µg/ml, 30 min, 25 °C (Figure S2)", "result": 15.8, "unit": "mU/mg"},
      {"measurement": "Kis (catalytic site)", "setting": "hSARM1 full length [2]; hSARM1 full length +NMN 5μM, n=1", "result": ">8000", "unit": "µM"},
      {"measurement": "Ki", "setting": "hSARM1 full length [2]; hSARM1 full length +NMN 5μM, n=1, read-out: Kia (allosteric site)", "result": 385, "unit": "µM"},
      {"measurement": "Kis (catalytic site)", "setting": "hSARM1 full length [2]; hSARM1 full length +NMN 10μM, n=1", "result": ">8000", "unit": "µM"},
      {"measurement": "Ki", "setting": "hSARM1 full length [2]; hSARM1 full length +NMN 10μM, n=1, read-out: Kia (allosteric site)", "result": 415, "unit": "µM"},
      {"measurement": "Kis (catalytic site)", "setting": "hSARM1 full length [2]; hSARM1 full length +NMN 20μM, n=1", "result": ">8000", "unit": "µM"},
      {"measurement": "Ki", "setting": "hSARM1 full length [2]; hSARM1 full length +NMN 20μM, n=1, read-out: Kia (allosteric site)", "result": 787, "unit": "µM"},
      {"measurement": "Kis (catalytic site)", "setting": "hSARM1 full length [2]; hSARM1 full length +NMN 50μM, n=1", "result": ">8000", "unit": "µM"},
      {"measurement": "Ki", "setting": "hSARM1 full length [2]; hSARM1 full length +NMN 50μM, n=1, read-out: Kia (allosteric site)", "result": 1200, "unit": "µM"},
      {"measurement": "basal rate", "setting": "hSARM1 full length [2]; hSARM1 full length WT 5.4 µg/ml, 6 hours, 25 °C (Figure S3)", "result": 26.4, "unit": "mU/mg"},
      {"measurement": "Kis (inhibition, catalytic site on TIR domain)", "setting": "hSARM1 full length [2]; hSARM1 full length, no NMN", "result": ">8000", "unit": "µM"},
      {"measurement": "Ki", "setting": "hSARM1 full length [2]; hSARM1 full length, no NMN, read-out: Kia (inhibition, allosteric site on ARM domain)", "result": "324 ± 24.6", "unit": "µM"},
      {"measurement": "NAD concentration at maximum NADase activity", "setting": "hSARM1 full length [2]; hSARM1 full length, activity falls to almost zero at 4 mM", "result": 0.25, "unit": "mM"},
      {"measurement": "Kis (inhibition, catalytic site)", "setting": "hSARM1 SAM-TIR [3]", "result": ">8000", "unit": "µM"},
      {"measurement": "rate", "setting": "hSARM1 SAM-TIR [4]", "result": "342.4 ±56.3", "unit": "mU/mg"},
      {"measurement": "cyclization, share of NAD consumption", "setting": "[5]", "result": "> 98", "unit": "%"},
      {"measurement": "specific activity, basal NADase (hydrolysis or cyclization combined)", "setting": "[5]; saturating NAD", "result": "~50", "unit": "U/mg"},
      {"measurement": "rate", "setting": "[6]", "result": "14712 ±399", "unit": "mU/mg"},
      {"measurement": "rate", "setting": "hCD38 [7]", "result": "7798 ±1624", "unit": "mU/mg"},
      {"measurement": "rate", "setting": "hSARM1 full length [8]", "result": "21.8 ±0.30", "unit": "mU/mg"}
    ]}
  ]
}
